Reference: patent US20230203029A1 (priority 2020, published 2023)

Key:
[1] = molecular target: T1, Ba/F3 Pro B-cell line expressing TEL-human MERTK fusion domain (Homo sapiens, UniProt Q12866); assay type: cell-based; settings: cell survival, 48 h, CellTiter-Glo; read-out: TEL-MERTK Ba/F3 IC50
T1 sequence (Q12866 587-858 limits assumed): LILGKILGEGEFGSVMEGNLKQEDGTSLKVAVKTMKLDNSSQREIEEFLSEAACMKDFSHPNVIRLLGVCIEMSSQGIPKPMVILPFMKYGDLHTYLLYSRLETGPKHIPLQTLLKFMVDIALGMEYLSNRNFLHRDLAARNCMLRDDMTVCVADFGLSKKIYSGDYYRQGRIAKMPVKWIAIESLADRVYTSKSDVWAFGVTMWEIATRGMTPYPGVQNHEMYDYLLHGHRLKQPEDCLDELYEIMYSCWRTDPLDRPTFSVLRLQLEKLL
Description: (§1) Assay 5—Ba/F3 Cell Survival Assays.
(§2) The inhibitory potencies of compounds were assessed in a Ba/F3 cell survival assay, using the Ba/F3 Pro B-cell line, recombinantly expressing a BCR-human AXL kinase domain fusion protein (pACD320/AXL, Advanced Cellular Dynamics Inc), TEL-human MERTK fusion domain (pACD1000/MERTK, Advanced Cellular Dynamics Inc), TEL-human Tyro3 fusion domain (pACD1000/TYRO3, Advanced Cellular Dynamics Inc), or control TEL-none (ACD320, Advanced Cellular Dynamics Inc) BRC-none constructs (ACD1000, Advanced Cellular Dynamics Inc). 10 ng/mL recombinant murine IL3 (R&D, 403-ML-010) was included in the media when propagating negative control TEL-none or BCR-none lines only. […] The final assay DMSO concentration was 0.25%. Compound incubations were conducted for 48 h at 37° C./5% CO2, after which cell plate was equilibrated at room temperature for 20 minutes prior to assessing viability. 15 μl of Promega CellTiter-Glo reagent (G7572) was added to each well for 2 min on an orbital shaker to induce cell lysis.
(§3) The plate was then equilibrated for 5 min at room temperature and luminescence read on a BMG Pherastar FSX using the LUM plus optic module. […] Competition curves were then fit to a 4 parameter logistic equation including a variable slope factor to determine the IC50 (compound concentration causing a half-maximal inhibition of cell survival).

[2] = molecular target: T2, human MERTK cytoplasmic domain (Homo sapiens, UniProt Q12866); assay: biochemical; settings: 30 uM ATP; read-out: Assay 1a Mer IC50 30 uM ATP
T2 construct: human MERTK cytoplasmic domain (Carna Biosciences 08-108); purchased Carna Biosciences 08-108
Description: Assay 1a—MERTK HTRF KinEASE-TK Assay
The enzymatic reaction was carried out for 30 min at room temperature. 10 μL TK Antibody-Cryptate/Streptavidin-XL665 (Cisbio 610SAXLG) was then added for 60 min, including EDTA containing detection buffer (Cisbio 62SDBRDF) to stop the reaction.

[3] = molecular target: T3, human AXL cytoplasmic domain (Homo sapiens, UniProt P30530); assay: Assay 1b AXL HTRF KinEASE-TK assay; assay type: biochemical
T3 construct: human AXL cytoplasmic domain (Thermo Fisher A31515); purchased Thermo Fisher A31515
T3 sequence (P30530 473-894 limits assumed): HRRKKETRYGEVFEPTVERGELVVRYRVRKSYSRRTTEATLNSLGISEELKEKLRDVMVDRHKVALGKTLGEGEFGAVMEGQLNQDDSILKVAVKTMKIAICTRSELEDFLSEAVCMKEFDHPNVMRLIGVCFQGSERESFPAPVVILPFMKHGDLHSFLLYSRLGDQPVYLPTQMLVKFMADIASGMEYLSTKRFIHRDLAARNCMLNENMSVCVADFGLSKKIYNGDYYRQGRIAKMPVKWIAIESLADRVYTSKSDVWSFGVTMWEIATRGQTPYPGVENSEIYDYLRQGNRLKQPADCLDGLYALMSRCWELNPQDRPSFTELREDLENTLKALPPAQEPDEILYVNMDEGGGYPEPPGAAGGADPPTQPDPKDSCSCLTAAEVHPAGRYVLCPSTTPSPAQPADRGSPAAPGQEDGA
Description: Assay 1b—AXL HTRF KinEASE-TK Assay
Compound inhibition of human AXL cytoplasmic domain (Thermo Fisher A31515) enzymatic activity was tested via the HTRF KinEASE-tyrosine kinase (TK) kit (Cisbio 62TK0PEC). Experiments were performed in 20 μl enzymatic buffer (Cisbio 62EZBFDD) supplemented with 5 mM MgCl2, 1 mM MnCl2, 1 mM DTT, 50 nM SEB (Cisbio, 61SEBALB), with 5 nM of AXL and the test compounds of interest. […] The enzymatic reaction was carried out for 30 min at room temperature. 10 μL TK Antibody-Cryptate/Streptavidin-XL665 (Cisbio 610SAXLG) was then added for 60 min, including EDTA containing detection buffer (Cisbio 62SDBRDF) to stop the reaction. The plate was read on a BMG Pherastar FSX using a HTRF 337/620/665 optical module to excite the terbium donor at 337 nm, and record donor emission at 620 nm and acceptor fluorophore emission at 665 nm. From this the FRET ratio (acceptor 665 nm/donor 620 nm) for each data point was calculated. […] Competition curves were then fit to a 4 parameter logistic equation including a variable slope factor to determine the IC50 (compound concentration that inhibits 50% of AXL activity).

[4] = molecular target: T4, Ba/F3 Pro B-cell line expressing TEL-human Tyro3 fusion domain (Homo sapiens, UniProt Q06418); assay type: cell-based; settings: cell survival, 48 h, CellTiter-Glo
T4 sequence (Q06418 518-790 limits assumed): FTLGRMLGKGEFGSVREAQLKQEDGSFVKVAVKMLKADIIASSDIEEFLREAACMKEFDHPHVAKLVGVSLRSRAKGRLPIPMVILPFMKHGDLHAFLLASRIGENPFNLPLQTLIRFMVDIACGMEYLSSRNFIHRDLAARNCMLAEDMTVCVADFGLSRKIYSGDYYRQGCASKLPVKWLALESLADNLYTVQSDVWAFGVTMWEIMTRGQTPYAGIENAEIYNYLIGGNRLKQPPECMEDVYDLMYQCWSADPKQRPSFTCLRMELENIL
Description: as §1
as §2, with “only. Cells were maintained in RMPI 1640 (Corning 15-040-CV) culture media containing 10% heat inactivated semi-synthetic FBS (RMBIO FGR-BBT), 2 mM L-Glutamine (Sigma, G7513), 100 IU/mL Penicillin-[…] Streptomycin (Sigma, P4333), and 500 ng/mL Puromycin (Sigma, P8833). Experiments were performed in 50 μl growth media, including the test compounds of interest, and dispensing 5000 cells/well in logarithmic-phase growth into a 384 well white Optiplate (Perkin Elmer 6007299).” for “only.”
The plate was then equilibrated for 5 min at room temperature and luminescence read on a BMG Pherastar FSX using the LUM plus optic module. Data were normalised to measurements in the absence of competing compound (0% inhibition). Competition curves were then fit to a 4 parameter logistic equation including a variable slope factor to determine the IC50 (compound concentration causing a half-maximal inhibition of cell survival).

[5] = molecular target: T5, Ba/F3 Pro B-cell line expressing BCR-human AXL kinase domain fusion protein (Homo sapiens, UniProt P30530); assay: Assay 5 Ba/F3 cell survival assay, BCR-Axl; assay type: cell-based; settings: read-out: BCR-Axl Ba/F3 IC50, 48 h, CellTiter-Glo
T5 construct: P11274 (Breakpoint cluster region protein)
T5 sequence (P30530 536-807 limits assumed): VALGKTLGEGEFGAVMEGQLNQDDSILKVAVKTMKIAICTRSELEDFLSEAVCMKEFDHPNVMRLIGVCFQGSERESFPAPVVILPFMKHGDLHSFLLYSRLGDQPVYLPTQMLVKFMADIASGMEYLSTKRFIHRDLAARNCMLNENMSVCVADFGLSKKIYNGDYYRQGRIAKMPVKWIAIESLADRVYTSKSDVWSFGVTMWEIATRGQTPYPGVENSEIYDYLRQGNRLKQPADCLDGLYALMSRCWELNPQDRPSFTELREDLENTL
Description: as §1, §2, §3

T2 sequence (Q12866 527-999): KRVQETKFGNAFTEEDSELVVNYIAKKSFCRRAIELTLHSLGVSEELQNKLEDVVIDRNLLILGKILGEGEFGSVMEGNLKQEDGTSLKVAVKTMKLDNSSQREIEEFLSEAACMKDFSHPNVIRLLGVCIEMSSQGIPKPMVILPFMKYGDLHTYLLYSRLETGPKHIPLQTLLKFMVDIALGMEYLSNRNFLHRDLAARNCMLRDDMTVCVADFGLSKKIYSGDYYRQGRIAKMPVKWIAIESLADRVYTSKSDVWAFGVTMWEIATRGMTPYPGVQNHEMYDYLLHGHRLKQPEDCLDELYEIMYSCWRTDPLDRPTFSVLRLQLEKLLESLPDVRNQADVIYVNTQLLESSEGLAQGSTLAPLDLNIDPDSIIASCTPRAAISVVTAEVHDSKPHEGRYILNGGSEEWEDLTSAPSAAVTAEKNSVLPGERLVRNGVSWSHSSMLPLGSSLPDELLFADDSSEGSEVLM

**Q.** Which results are given for `O=C(Nc1ccc(Oc2ccnc3cnc(N4CCN(C5COC5)CC4)cc23)cn1)c1cccn(-c2ccc(F)cc2)c1=O` [Example 10.2, 1-(4-fluorophenyl)-N-[5-[[6-[4-(oxetan-3-yl)piperazin-1-yl]-1,7-naphthyridin-4-yl]oxy]-2-pyridyl]-2-oxo-pyridine-3-carboxamide]?
**A.** IC50 [1]: 17 nM; IC50 [2]: 2 nM; IC50 [3]: 20 nM; IC50 [4]: 394 nM; IC50 [5]: 14 nM

**Q.** Which IC50 [1] does the source give for `CN1CCC(NC(=O)c2cc3c(Oc4ccc(NC(=O)c5cccn(-c6ccc(F)cc6)c5=O)nc4)ccnc3cn2)CC1` [Example 11, 4-[[6-[[1-(4-fluorophenyl)-2-oxo-pyridine-3-carbonyl]amino]-3-pyridyl]oxy]-N-(1-methyl-4-piperidyl)-1,7-naphthyridine-6-carboxamide] here?
**A.** 52 nM

**Q.** And the IC50 [2]?
**A.** 4 nM

**Q.** And the IC50 [3]?
**A.** 77 nM

**Q.** And the IC50 [4]?
**A.** 251 nM

**Q.** What about the IC50 [5] of the same compound?
**A.** 32 nM

**Q.** With `CC(C)n1cc(C(=O)Nc2ccc(Oc3ccnc4cnc(N5CCNCC5)cc34)cc2)c(=O)n(-c2ccc(F)cc2)c1=O` [Example 12.5, 3-(4-fluorophenyl)-1-isopropyl-2,4-dioxo-N-[4-[(6-piperazin-1-yl-1,7-naphthyridin-4-yl)oxy]phenyl]pyrimidine-5-carboxamide] as the compound, how does the IC50 [1] read?
**A.** 38 nM

**Q.** What about the IC50 [2] of the same compound?
**A.** 3 nM

**Q.** And the IC50 [3]?
**A.** 5 nM

**Q.** And the IC50 [4]?
**A.** 428 nM

**Q.** What about the IC50 [5] of the same compound?
**A.** 5 nM

**Q.** For `O=C(Nc1ccc(Oc2ccnc3cnc(N4CCNCC4)cc23)cc1)c1cccc(-c2ccc(F)cc2)[n+]1[O-]` [Example 12.6, 6-(4-fluorophenyl)-1-oxido-N-[4-[(6-piperazin-1-yl-1,7-naphthyridin-4-yl)oxy]phenyl]pyridin-1-ium-2-carboxamide], which IC50 [1] is on record?
**A.** 16 nM

**Q.** What about the IC50 [2] of the same compound?
**A.** 3 nM

**Q.** And the IC50 [3]?
**A.** 31 nM

**Q.** What about the IC50 [4] of the same compound?
**A.** 110 nM

**Q.** And the IC50 [5]?
**A.** 6 nM

**Q.** For `CN1CCC(c2cc3c(Oc4ccc(NC(=O)c5cccn(-c6ccc(F)cc6)c5=O)nc4)ccnc3cn2)CC1` [Example 16, 1-(4-Fluorophenyl)-N-[5-[[6-(1-methyl-4-piperidyl)-1,7-naphthyridin-4-yl]oxy]-2-pyridyl]-2-oxo-pyridine-3-carboxamide], which IC50 [1] is on record?
**A.** 14 nM

**Q.** What about the IC50 [2] of the same compound?
**A.** 19 nM

**Q.** What about the IC50 [3] of the same compound?
**A.** 264 nM

**Q.** And the IC50 [4]?
**A.** 931 nM

**Q.** And the IC50 [5]?
**A.** 22 nM

**Q.** `CC(C)(C)OC(=O)N1CCC(c2cc3c(Oc4ccc(NC(=O)c5cccn(-c6ccc(F)cc6)c5=O)nc4)ccnc3cn2)C1` (stereo not drawn) [Example 16.1, tert-butyl 3-[4-[[6-[[1-(4-fluorophenyl)-2-oxo-pyridine-3-carbonyl]amino]-3-pyridyl]oxy]-1,7-naphthyridin-6-yl]pyrrolidine-1-carboxylate] was tested. Which IC50 [1] did it give?
**A.** 70 nM

**Q.** What about the IC50 [2] of the same compound?
**A.** 4 nM

**Q.** And the IC50 [3]?
**A.** 27 nM

**Q.** What about the IC50 [4] of the same compound?
**A.** 1930 nM

**Q.** What about the IC50 [5] of the same compound?
**A.** 76 nM

**Q.** For `O=C(Nc1ccc(Oc2ccnc3cnc(C4=CCN(C5COC5)CC4)cc23)cn1)c1cccn(-c2ccc(F)cc2)c1=O` [Example 16.2, 1-(4-fluorophenyl)-N-[5-[[6-[1-(oxetan-3-yl)-3,6-dihydro-2H-pyridin-4-yl]-1,7-naphthyridin-4-yl]oxy]-2-pyridyl]-2-oxo-pyridine-3-carboxamide], which IC50 [1] is on record?
**A.** 14 nM

**Q.** And the IC50 [2]?
**A.** 3 nM

**Q.** And the IC50 [3]?
**A.** 18 nM

**Q.** And the IC50 [4]?
**A.** 144 nM

**Q.** And the IC50 [5]?
**A.** 15 nM

**Q.** Which IC50 [1] does the source give for `CC(C)(C)OC(=O)N1CCC(c2cc3c(Oc4ccc(NC(=O)c5cccn(-c6ccc(F)cc6)c5=O)nc4)ccnc3cn2)CC1` [Example 16.4, tert-butyl 4-[4-[[6-[[1-(4-fluorophenyl)-2-oxo-pyridine-3-carbonyl]amino]-3-pyridyl]oxy]-1,7-naphthyridin-6-yl]piperidine-1-carboxylate] here?
**A.** 195 nM

**Q.** And the IC50 [2]?
**A.** 13 nM

**Q.** What about the IC50 [3] of the same compound?
**A.** 282 nM

**Q.** And the IC50 [4]?
**A.** > 2500 nM

**Q.** What about the IC50 [5] of the same compound?
**A.** 154 nM

**Q.** `CN1CCC(c2cc3c(Oc4ccc(NC(=O)c5cccn(-c6ccc(F)cc6)c5=O)cc4)ccnc3cn2)CC1` [Example 17, 1-(4-fluorophenyl)-N-[4-[[6-(1-methyl-4-piperidyl)-1,7-naphthyridin-4-yl]oxy]phenyl]-2-oxo-pyridine-3-carboxamide] was tested. Which IC50 [1] did it give?
**A.** 25 nM

**Q.** What about the IC50 [2] of the same compound?
**A.** 4 nM

**Q.** What about the IC50 [3] of the same compound?
**A.** 240 nM

**Q.** What about the IC50 [4] of the same compound?
**A.** 186 nM

**Q.** What about the IC50 [5] of the same compound?
**A.** 31 nM
